What was measured:
αvβ1 = αvβ1 (Homo sapiens, UniProt P05556+P06756); test: Solid Phase Integrin αvβ1 Assay; assay type: binding
Summary of the method: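 Compound competes for αvβ1 binding to immobilized TGFb1-LAP (1 µg/mL coat) in Mn2+ (1 mM MnCl2), 2% BSA binding buffer over 90 min at room temperature, integrin added at 0.2 µg/mL. Read-out: streptavidin-HRP/TMB; IC50 from Levenberg-Marquardt four-parameter fit.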

αvβ6 = αvβ6 (Homo sapiens, UniProt P06756+P18564); test: Solid Phase Integrin αvβ6 Assay; assay type: binding
Summary of the method: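 Inhibition of αvβ6 binding to immobilized recombinant TGFb1-LAP (1 μg/mL coating), 1 h at room temperature with 1 mM MnCl2 in BSA/TBST buffer, integrin diluted to 0.2 μg/mL before addition. Streptavidin-HRP/TMB read-out; four-parameter logistic fitting gave IC50.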

αvβ1, sequence (P06756 31-992 limits assumed): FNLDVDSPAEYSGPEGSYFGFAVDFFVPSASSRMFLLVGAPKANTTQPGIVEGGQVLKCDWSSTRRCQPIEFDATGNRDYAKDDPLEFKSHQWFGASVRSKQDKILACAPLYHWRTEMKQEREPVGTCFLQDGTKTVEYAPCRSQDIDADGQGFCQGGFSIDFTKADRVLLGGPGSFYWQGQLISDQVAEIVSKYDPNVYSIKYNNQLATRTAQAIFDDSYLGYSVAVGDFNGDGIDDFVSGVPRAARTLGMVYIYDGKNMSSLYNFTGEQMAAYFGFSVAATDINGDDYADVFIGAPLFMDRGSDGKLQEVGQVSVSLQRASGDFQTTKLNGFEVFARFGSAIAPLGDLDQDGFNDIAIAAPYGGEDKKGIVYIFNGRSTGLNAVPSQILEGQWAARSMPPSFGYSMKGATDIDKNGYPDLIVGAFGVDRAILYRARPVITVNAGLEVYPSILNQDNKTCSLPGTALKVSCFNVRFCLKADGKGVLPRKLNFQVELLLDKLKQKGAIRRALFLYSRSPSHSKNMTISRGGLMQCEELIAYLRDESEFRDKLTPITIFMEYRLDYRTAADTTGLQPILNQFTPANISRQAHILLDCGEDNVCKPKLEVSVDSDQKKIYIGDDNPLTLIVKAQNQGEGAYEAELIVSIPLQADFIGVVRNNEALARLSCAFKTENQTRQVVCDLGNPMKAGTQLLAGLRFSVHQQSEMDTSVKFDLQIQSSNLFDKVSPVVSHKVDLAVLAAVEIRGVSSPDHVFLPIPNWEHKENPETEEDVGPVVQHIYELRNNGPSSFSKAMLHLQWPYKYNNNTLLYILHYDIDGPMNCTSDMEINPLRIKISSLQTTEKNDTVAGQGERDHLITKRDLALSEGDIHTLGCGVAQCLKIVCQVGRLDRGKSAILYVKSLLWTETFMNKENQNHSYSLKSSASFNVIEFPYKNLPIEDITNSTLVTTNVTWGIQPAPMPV
αvβ1, sequence (P05556 21-728 limits assumed): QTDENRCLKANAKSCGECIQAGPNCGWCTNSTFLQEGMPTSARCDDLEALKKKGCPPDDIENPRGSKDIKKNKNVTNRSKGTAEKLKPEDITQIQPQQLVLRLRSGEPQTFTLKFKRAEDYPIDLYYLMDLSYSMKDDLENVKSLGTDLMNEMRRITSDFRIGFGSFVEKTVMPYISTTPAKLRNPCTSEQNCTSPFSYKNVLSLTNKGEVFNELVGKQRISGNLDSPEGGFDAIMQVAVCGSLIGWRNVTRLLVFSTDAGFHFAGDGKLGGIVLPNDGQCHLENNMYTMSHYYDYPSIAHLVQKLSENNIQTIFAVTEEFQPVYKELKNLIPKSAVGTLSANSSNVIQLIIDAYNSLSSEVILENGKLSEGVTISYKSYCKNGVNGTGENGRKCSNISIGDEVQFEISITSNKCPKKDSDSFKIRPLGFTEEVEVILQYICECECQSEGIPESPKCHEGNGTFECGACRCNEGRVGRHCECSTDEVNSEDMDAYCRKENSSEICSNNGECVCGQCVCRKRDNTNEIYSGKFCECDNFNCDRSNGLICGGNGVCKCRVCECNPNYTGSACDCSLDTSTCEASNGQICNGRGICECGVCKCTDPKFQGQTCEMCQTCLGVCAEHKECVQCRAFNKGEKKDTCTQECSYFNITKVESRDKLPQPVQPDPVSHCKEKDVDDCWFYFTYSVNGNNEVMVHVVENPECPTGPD
αvβ6, sequence (P06756 31-992 limits assumed): as the sequence (P06756 31-992 limits assumed) above
αvβ6, sequence (P18564 22-707 limits assumed): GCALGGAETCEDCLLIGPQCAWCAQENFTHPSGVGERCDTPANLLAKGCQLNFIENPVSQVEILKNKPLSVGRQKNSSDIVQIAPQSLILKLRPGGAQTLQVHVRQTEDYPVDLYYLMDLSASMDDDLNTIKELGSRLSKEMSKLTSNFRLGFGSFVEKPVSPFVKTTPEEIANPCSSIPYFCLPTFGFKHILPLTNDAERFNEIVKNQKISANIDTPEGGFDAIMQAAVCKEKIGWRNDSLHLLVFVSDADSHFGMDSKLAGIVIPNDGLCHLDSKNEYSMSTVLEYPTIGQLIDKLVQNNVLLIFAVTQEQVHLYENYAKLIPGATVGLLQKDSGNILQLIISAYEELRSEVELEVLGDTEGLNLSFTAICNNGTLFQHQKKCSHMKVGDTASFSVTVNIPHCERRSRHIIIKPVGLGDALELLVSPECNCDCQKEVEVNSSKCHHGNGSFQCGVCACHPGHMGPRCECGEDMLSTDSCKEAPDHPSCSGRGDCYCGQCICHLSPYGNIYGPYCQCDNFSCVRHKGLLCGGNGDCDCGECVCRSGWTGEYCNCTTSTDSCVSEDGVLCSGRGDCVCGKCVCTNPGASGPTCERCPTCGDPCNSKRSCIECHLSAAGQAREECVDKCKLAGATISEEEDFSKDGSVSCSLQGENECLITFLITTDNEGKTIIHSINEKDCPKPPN

In the case of O=C(O)C[C@@H](NC(=O)[C@@H]1CCCN(CCCc2ccc3c(n2)NCCC3)C1)c1cc(C2CC2)ccc1F [Compound 245-B, 3-(5-cyclopropyl-2-fluorophenyl)-3-((R)-1-(3-(5,6,7,8-tetrahydro-1,8-naphthyridin-2-yl)propyl)piperidine-3-carboxamido)propanoic acid], the IC50 (αvβ1) is reported as under 100 nM and the IC50 (αvβ6) is reported as under 100 nM.
In the case of O=C(O)CC(CO[C@@H]1CCCN(CCc2ccc3c(n2)NCCC3)C1)c1ccccc1 (stereo partly shown) [Compound 335], the IC50 (αvβ1) is reported as 100 to 1000 nM and the IC50 (αvβ6) is reported as 100 to 1000 nM.
Work on O=C(N[C@H](CCO[C@@H]1CCCN(CCCc2ccc3c(n2)NCCC3)C1)C(=O)O)c1c(F)cc(N2CCOCC2)cc1F [Compound 512] yielded an IC50 (αvβ1) of over 1000 nM and an IC50 (αvβ6) of over 1000 nM.
For O=C(CC[C@@H](C(=O)O)c1ccccc1)N[C@H]1CCN(CCCCc2ccc3c(n2)NCCC3)C1 [Compound 425], the IC50 (αvβ1) was over 1000 nM and the IC50 (αvβ6) was over 1000 nM.
In the case of O=C(N[C@@H](CNC(=O)[C@@H]1CCCN(CCCc2ccc3c(n2)NCCC3)C1)C(=O)O)c1c(Cl)cccc1Cl [Compound 362], the IC50 (αvβ1) is reported as under 100 nM and the IC50 (αvβ6) is reported as under 100 nM.
